{"source": "patent US20230026259A1", "about": "“CA2 COMPOSITIONS AND METHODS FOR TUNABLE REGULATION” (Obsidian Therapeutics, Inc., priority 2019, published 2023)", "tested_on": "Activated T cells from human donor", "test": "Cell surface CAR expression of CA2 regulated CAR constructs (CD19-Fc staining)", "format": "cell-based", "procedure": "CA2 DD described herein were operably linked to CARs to generate tunable CAR constructs. Activated T cells from human donor were transduced with 10 μL of lentivirus for indicated constructs. […] Cell surface CAR expression was detected the following day by staining the cells with 10 ug/mL CD19-Fc followed by an anti-human-BV421 conjugated secondary antibody. Histograms were plotted from a live cell gate. Similar experiments were also performed at day 8 and the cells were harvested at day 9. The data are shown in Table 20 as percentage CAR positive cells. The stabilization ratio was also calculated and is included in Table 20 as SR.\nActivated T cells from human donor were transduced with 10 μL of lentivirus for indicated constructs. […] Cell surface CAR expression was detected the following day by staining the cells with 10 ug/mL CD19-Fc followed by an anti-human-BV421 conjugated secondary antibody. The percent of ligand induced CAR+ cells are plotted from a live cell gate relative to vehicle treated negative control cells."}
{"smiles": "Cc1onc(-c2ccccc2)c1-c1ccc(S(N)(=O)=O)cc1", "note": "[Valdecoxib]", "values": [{"measurement": "regulation of CAR expression by titrations of Valdecoxib", "setting": "T cells day 8, Valdecoxib starting at 10 μM diluting 3-fold, overnight", "value": "Little to no ligand dependent regulation of CAR"}, {"measurement": "CAR regulation compared between ligands", "setting": "T cells, 10 μM ligand overnight, day 7 and 9", "value": "regulation was more evident at day 7"}]}
